Results: patent publication EP0725776B1, “3-ARYL-4-ALKYL AND 4,5-DIALKYL-4H-1,2,4-TRIAZOLES USEFUL AS MEMORY ENHANCERS” (MERRELL PHARMACEUTICALS INC., priority 1993, dated 1995)

What was measured:
RAT CORTICAL MEMBRANES = experiment: [3H]hemicholinium-3 binding in vitro in cortical membranes after in vivo administration; set-up: species or system Male Sprague-Dawley rats; details: n=10
Description: The pharmacological properties of these compounds as enhancers of memory and cognition and their relative potencies may be measured through their effect on neuro-transmitters in the brain. Since drugs that block GABA inhibition in the cholinergic neurons of the basal forebrain nuclei will stimulate cholinergic firing, thus stimulating memory, the capacity of the drugs to enhance cognition can be assessed by measuring the increase in cholinergic firing rate. The increase in cholinergic firing rate is measured indirectly by measuring choline uptake or [^3H] hemicholinium-3 binding in brain cells taken from treated animals.
To test for [^3H] hemicholinium-3 binding in brain cells from the brain cortex, drugs were dissolved in saline by sonication. Male Sprague-Dawley rats were dosed i.p. and sacrificed by decapitation 60 min after injection. […] Binding was measured by incubating the tissue with varying concentrations of [^3H]hemicholinium-3 in an isotonic Tris buffer (pH 7.4) for 60 min at room temperature. […] After drying, the filters were placed in scintillation cocktail and radioactivity was determined using a Beckman scintillation counter. The values for the Kd and Bmax were determined by nonlinear curve-fitting and the average values for samples of 3 or more animals reported. […]

[1] = tested on: Diazepam-Induced Water Maze Learning Impairment; experiment: Reversal of diazepam-induced water maze learning impairment; format: in vivo, Male Sprague-Dawley rats; details: for Mean Latency ± S.E.M., Block 1 / Mean Latency ± S.E.M., Block 2 / Mean Latency ± S.E.M., Block 3: 8 rats
Description: The activity of compounds of formula I in enhancing spacial learning ability and cognition can be tested by studying their ability to reverse a water maze learning impairment induced by the benzodiazepine, diazepam (R. G. M. Morris, Learning and Motivation 12, 239-260 (1982); M. P. Arolfo, and J. D. Brioni, Behavioral and Neural Biology 55, 131-6 (1991); R. K. McNamara and R. W. Skelton, Pharmacology, Biochemistry & Behavior 38, 651-8 (1991); R. K. McNamara and R. W. Skelton, Psychopharmacology 107, 347-51 (1992)).
Male Sprague-Dawley rats are trained in a 120-cm diameter water-filled tank to locate a hidden platform submerged just below the surface of the water. The location of the platform remained constant, but for each trial the animal was required to swim from one of three different starting locations around the edge of the tank. There were no proximal cues in the tank, so the animal had to use a spatial mapping strategy using the distal cues around the room to navigate to the hidden platform. The animals were given 9 successive training trials during the single training day. […] After the animal found or was placed on the platform, it was allowed to stay there for 30 seconds. The next trial commenced immediately following the 30 second stay on the platform. Latency to locate the platform was recorded for each trial using a computerized video tracking system for automated acquisition of the data.
Separate treatment groups of four animals each were run in each experiment. The results of two experiments were combined so that 8 rats were tested in each treatment group. The vehicle-vehicle group received vehicle (distilled water plus Tween) i.p. 60 minutes prior to the first trial and vehicle i.p. 20 minutes prior to the first trial. The vehicle-diazepam group received vehicle i.p. 60 minutes prior to the first trial and 2.5 mg/kg diazepam i.p. 20 minutes prior to the first trial. Two groups of animals were treated with 3-(3-fluorophenyl)-4-methyl-4H-1,2,4-triazole, a compound of formula I, prior to treatment with diazepam. One group received 20 mg/kg of 3-(3-fluorophenyl)-4-methyl-4H-1,2,4-triazole i.p. 60 minutes prior to the first trial and 2.5 mg/kg diazepam i.p. 20 minutes prior to the first trial, while the second group received 40 mg/kg of 3-(3-fluorophenyl)-4-methyl-4H-1,2,4-triazole i.p. 60 minutes prior to the first trial and 2.5 mg/kg diazepam i.p. 20 minutes prior to the first trial.
The latency scores for each animal were averaged into three blocks of three trials each (one trial from each starting location). A one-way ANOVA comparing the treatment groups was computed on the scores for each trial block. If the overall ANOVA was statistically significant, comparisons between individual treatment groups were made with Fisher's PLSD test.

[2] = reported by M. Y. Mhasalkar, et al., J. Med. Chem 14(3) 260-262, (1971); cited from earlier work
[3] = 20 mg/kg i.p. 60 min prior to first trial, diazepam 2.5 mg/kg i.p. 20 min prior
[4] = 40 mg/kg i.p. 60 min prior to first trial, diazepam 2.5 mg/kg i.p. 20 min prior
[5] = vehicle i.p. 60 min prior, diazepam alone 2.5 mg/kg i.p. 20 min prior to first trial

With `Cn1cnnc1-c1cccc(F)c1` [3-(3-Fluorophenyl)-4-methyl-4H-1,2,4-triazole] the “Bmax ± SEM” value (RAT CORTICAL MEMBRANES; [3H]hemicholinium-3 binding, rat cortex, dosed i.p. (1/mg/kg), sacrificed 60 min after injection) was 20.4±2.48 fmol/mg Protein, the “% Increase in Bmax” value (RAT CORTICAL MEMBRANES; over saline control, (1/mg/kg) i.p., 60 min) was 45% and the “Mean Latency ± S.E.M., Block 1” value [1, 3] was 44.68 ± 2.56 s. For the same molecule, the “Mean Latency ± S.E.M., Block 2” value [1, 3] was 37.67 ± 6.01 s, the “Mean Latency ± S.E.M., Block 3” value [1, 3] was 35.21 ± 6.00 s and the “Effect on diazepam-induced impairment” value ([1]; 20 mg/kg i.p. plus diazepam 2.5 mg/kg, result in words) was “attenuated diazepam-induced impairment”. The “Mean Latency ± S.E.M., Block 1” value [1, 4] was 58.19 ± 1.01 s, the “Mean Latency ± S.E.M., Block 2” value [1, 4] was 52.83 ± 3.85 s and the “Mean Latency ± S.E.M., Block 3” value [1, 4] was 53.59 ± 4.31 s. For the same molecule, the “Effect on diazepam-induced impairment” value ([1]; 40 mg/kg i.p. plus diazepam 2.5 mg/kg, result in words) was “did not affect the diazepam-induced impairment”.

In the case of `Cn1cnnc1-c1ccc(Cl)cc1` [3-(4-Chlorophenyl)-4-methyl-4H-1,2,4-triazole], the hypoglycemic activity [2] is given as “hypoglycemic activity”.

With `CN1C(=O)CN=C(c2ccccc2)c2cc(Cl)ccc21` [diazepam, reference compound] the “Effect on water maze learning” value ([1]; diazepam 2.5 mg/kg i.p. versus vehicle-vehicle group, p < .05 on all three blocks, result in words) was “significantly impaired water maze learning”, the “Mean Latency ± S.E.M., Block 1” value [1, 5] was 57.70 ± 2.30 s and the “Mean Latency ± S.E.M., Block 2” value [1, 5] was 49.67 ± 6.06 s. For the same molecule, the “Mean Latency ± S.E.M., Block 3” value [1, 5] was 55.76 ± 4.24 s.
